Earlier results, collected in patent publication US20160347856A1, “Use of Anti-MUC1 Maytansinoid Immunoconjugate Antibody for the Treatment of Solid Tumors” (SANOFI, priority 2013, published 2016).

Legend:
[1] = poor therapeutic effects because of high systemic toxicity; Foster et al. (1996), Wolff et al. (1996)
[2] = Bhuyan et al. (1982)
mice = conditions: single intravenous dose of 12.5 μg/kg; Reynolds et al. (1986)

Cc1c[nH]c2c1[C@@]13C[C@@H]1CN(C(=O)c1cc4cc(NC(=O)c5cc6ccccc6o5)ccc4[nH]1)C3=CC2=O [Adozelesin]
Clinical evaluation [1]: disappointing results

COc1c(O)c2c(c3cc(C(=O)N4CCc5c4c(O)c(OC)c4[nH]c(C(=O)N6CC7CC78C6=CC(=O)c6[nH]cc(C)c68)cc54)[nH]c13)CCN2C(N)=O (stereo not shown) [CC-1065]
Potency in vitro relative to doxorubicin, methotrexate and vincristine [2]: about 1000 fold
Toxicity after administration to mice (mice): delayed hepatotoxicity leading to mortality on day 50

CCN(CC)c1ccc2cc(C(=O)Nc3ccc4[nH]c(C(=O)N5C[C@@H](CCl)c6c5cc(OC(=O)Nc5ccccc5)c5[nH]cc(C)c65)cc4c3)oc2c1 [Carzelesin]
Clinical evaluation [1]: disappointing results
